No end group written: not given here.
Legend:
[1] = R9-GFP11 dot blot assay (anti-GFP11) of leaf lysates, tissue stability; type: in vivo, Nicotiana benthamiana; settings: 500 μM in water infiltrated, in situ, 0, 4, 8, 24 h; 12 mm disc lysed in RIPA, dot blot anti-GFP11, N = 6
Protocol: We infiltrated leaves with 500 μM R9-GFP11 and left the plants to incubate in situ. A higher concentration of R9-GFP11 was chosen to facilitate detection by immunoblotting. After 0, 4, 8, and 24 h of incubation, a single 12 mm leaf disc was harvested and lysed for each treatment. Two microliters of lysates were then spotted onto nitrocellulose for dot blot analysis[42] using a primary antibody raised against GFP11. […] The reduction at 24 h in the sfGFP signal is indicative of the combined intracellular and extracellular turnover of GFP11 becoming higher than the rate of delivery and complementation. […] We hypothesize that similar dynamics from apoplastic proteases[45] and intracellular degradation are at play in plants.
The third or fourth leaf of 4–5-week-old wild-type N. benthamiana was infiltrated with 500 μM R9-GFP11 in water using a needless syringe. Infiltrations were staggered such that all treatments could be harvested simultaneously for 0, 4, 8, and 24 h time points. Each treatment was performed on a separate plant and the experiment was repeated thrice. A 12 mm leaf disc was excised for each treatment using a leaf punch and flash frozen in liquid nitrogen before grinding and lysis in 20 μL RIPA buffer with 1x plant protease inhibitor cocktail (Sigma-Aldrich: P9599). The lysates were then clarified by centrifugation at 21,000 × g for 30 min. […]

[2] = test system: DCIP-expressing leaves (intact); assay: DCIP in attached, intact leaves incubated in situ; type: cell-based, Nicotiana benthamiana
Protocol: We next confirmed that DCIP is capable of detecting successful delivery in attached, intact leaves instead of leaf discs. DCIP-expressing leaves were thus infiltrated with 100 μM R9-GFP11 solutions and allowed to incubate in situ. During this time, the infiltrated liquid would dry, rendering the effective treatment concentration difficult to compare to the above leaf disc assays. We then assessed the amount of sfGFP complementation at 4 or 24 h post infiltration with 100 μM R9-GFP11 (Fig. 4a). […] We also tested whether or not 24 h-treated cells were still competent to R9-mediated delivery; we retreated a previously 24H treated leaf with 100 μM R9-GFP11, and imaged 4 h post re-treatment. […] The limited fluorescence recovery with re-treatment could be due to an induced stress response that decreases the cell wall permeability.
Three days after agroinfiltration, DCIP-expressing leaves were infiltrated with the treatment solutions. Unless otherwise stated, an 8 mm punch was then excised from the infiltrated area and plated, abaxial side up, onto ½ MS pH 5.7 agar plates. The plates were then left to incubate under ambient conditions for 4–5 h before imaging. For cold temperature treatment, after infiltration with ice-cold solutions of R9-GFP11 and disc excision, the leaf discs were plated onto ice-cold agar and immediately transferred to a 4 °C refrigerator for incubation. After incubation, the agar plates with leaf discs were kept on ice until the moment of imaging. For in situ incubation, leaves were simply infiltrated and the plant was returned to the growing chamber for incubation. […]
Excised leaf discs were imaged on a Zeiss LSM880 laser scanning confocal microscope. Images for semi-quantitative analysis were collected using a ×20/1.0NA Plan-apochromat water immersion objective and larger field-of-views were collected using a ×5 objective. […] For quantification experiments, z-stacks were acquired with the imaging depth set to capture the epidermal layer down to the point where mCherry nuclei could no longer be detected. z-stacks from four fields of view were acquired for every treatment condition. Quantitative image analysis and downstream processing was performed using Cell Profiler 3.0. […] Cell Profiler was then used to quantify the number, mCherry intensity, GFP intensity, and red (mCherry)/green (sfGFP) ratio of the projected nuclei.
Data obtained from Cell Profiler was processed using a script written in Python 3.9. Using the Cell Profiler data, GFP positive nuclei were counted using a Python script by setting a threshold defined as a one-tailed 99% confidence interval above the mean green/red ratio in the untreated control or water infiltration control of each experiment. […]

downstream AtWUS genes = assay: RT-qPCR of direct targets of AtWUS in treated seedlings; type: in vivo, Arabidopsis thaliana; settings: 24 h
Protocol: The previous results in N. benthamiana motivated us to determine whether or not the delivered AtWUS is transcriptionally active. We treated 12-day-old Arabidopsis seedlings for 24 h with 1 µM GFP11-AtWUS-R9. A. thaliana was chosen as a model species due to the well-characterized AtWUS pathway in A. thaliana. Seedlings were subsequently harvested and subjected to RT-qPCR analysis for six known direct targets of AtWUS (Fig. 7d). […] Ectopic expression of AtWUS downregulates the expression of cell identity markers ARR6, AS2, KAN1/2 and YAB3 by binding directly to their promoters[56],[57], and upregulates the expression of its own negative regulator, CLV3[58]. […] In this second experiment, 3 µM of protein was also used due to apparent batch-to-batch variation of activity and lower purity of the recombinant protein (Supplemental Fig. S12b, c).
Arabidopsis (Col-0) seedlings were grown in 12-well culture plates with 8–10 seedlings per well in 1 mL of 1x MS media supplemented with 0.5% sucrose and 2.5 mM MES, pH 5.7. Seeds were sterilized by washing in 70% ethanol for 30 s followed by a 15-min incubation in 50% bleach supplemented with 0.5% Tween-20 and rinsed 5x with DI water. Sterilized seeds were stratified in plates at 4 °C for 3 days after plating. Seedlings were grown at 22 °C under 16-h photoperiods for 12 days. To treat seedlings, the liquid media in each well was replaced with control and WUSCHEL treatments. Control wells were refreshed with 1 mL of MS growth media. WUSCHEL proteins were prepared for use by dialysis into 10 mM MES pH 5.7 for 2 h before dilution to their final concentration. Treatment wells were refreshed with 1 mL of 1 or 3 μM of protein (R9-GFP11, GFP11-AtWUS-R9, GFP11-AtWUS) dissolved in MS growth media. […]
Total RNA was extracted from Arabidopsis seedlings using an RNeasy Plant Mini Kit (Qiagen). […] Relative gene expression was determined using the ddCt method[80] using SAND1 as the reference gene. Relative gene expression was determined from four biological pools each containing 8–10 seedlings. […]

[3] = test system: cytoDCIP-expressing N. benthamiana leaf; assay: cytoDCIP nuclear localization of delivered AtWUS; type: cell-based, Nicotiana benthamiana; settings: 140 µM, leaf disc, 6 h
Text: After establishing the feasibility of using DCIP to assess recombinant protein delivery in intact leaves, we sought to examine R9-mediated delivery of the Arabidopsis plant morphogenic transcription factor, WUSCHEL (AtWUS), in N. benthamiana leaves. AtWUS was chosen as a candidate cargo due to its applications for somatic embryogenesis in plants and its high degree of molecular characterization[54],[55]. […] Because AtWUS is a transcription factor, we also expected to see GFP11-AtWUS-R9 localize to the nucleus without the SV40 NLS of DCIP. To test this, we infiltrated a cytoDCIP-expressing N. benthamiana leaf with 140 µM GFP11-AtWUS-R9. If the delivered AtWUS has active NLS activity, we would expect green fluorescence localized to only the nucleus and excess, uncomplemented mCherry-GFP1-10 to remain in the cytosol. […]
Excised leaf discs were imaged on a Zeiss LSM880 laser scanning confocal microscope. Images for semi-quantitative analysis were collected using a ×20/1.0NA Plan-apochromat water immersion objective and larger field-of-views were collected using a ×5 objective. […] For quantification experiments, z-stacks were acquired with the imaging depth set to capture the epidermal layer down to the point where mCherry nuclei could no longer be detected. z-stacks from four fields of view were acquired for every treatment condition. […]

Molecule	time until recovered/tissue-localized peptide returns to level of non-treated control (clearance from leaf tissue) [1]	time to disappearance of GFP complementation (DCIP) signal ([2]; 100 μM, intact leaves in situ)	percentage of sfGFP positive cells, 4 h post infiltration ([2]; 100 μM, intact leaves in situ, N = 5)	percentage of sfGFP-positive cells, 24 h post infiltration ([2]; 100 μM, intact leaves in situ, N = 5, not statistically different from non-treated control)	delivery after re-treatment of a 24 h treated leaf ([2]; re-treated with 100 μM, imaged 4 h post re-treatment)	CLV3 expression in GFP11-AtWUS-treated plants (downstream AtWUS genes; 3 µM)	tested AtWUS target genes regulated in an expected manner, first experimental repeat (downstream AtWUS genes; 3 µM, six genes, N = 4)	tested AtWUS target genes regulated in an expected manner, second experimental repeat (downstream AtWUS genes; six genes, N = 4, repeat)	nuclear localization of delivered protein in cytoDCIP leaf [3]
RRRRRRRRRGSGSRDHMVLHEYVNAAGIT [R9-GFP11]	≤ 24 h	≤ 24 h	relatively high percentage of sfGFP positive cells	returned nearly to baseline	some instances of successful delivery				
GFP11-AtWUS: recombinant AtWUS with GFP11 tag, without R9 fusion, 38.5 kDa (plasmid 1BR9-AtWUSSTOP) (protein, UniProt Q9SB92 1-292, looked up, GFP11 tag) Protein WUSCHEL: MEPPQHQHHHHQADQESGNNNNNKSGSGGYTCRQTSTRWTPTTEQIKILKELYYNNAIRSPTADQIQKITARLRQFGKIEGKNVFYWFQNHKARERQKKRFNGTNMTTPSSSPNSVMMAANDHYHPLLHHHHGVPMQRPANSVNVKLNQDHHLYHHNKPYPSFNNGNLNHASSGTECGVVNASNGYMSSHVYGSMEQDCSMNYNNVGGGWANMDHHYSSAPYNFFDRAKPLFGLEGHQEEEECGGDAYLEHRRTLPLFPMHGEDHINGGSGAIWKYGQSEVRPCASLELRLN						CLV3 downregulation	3/6	1/6	possessed nuclear localization activity

Reference: PMC10423278, “Delivered complementation in planta (DCIP) enables measurement of peptide-mediated protein delivery efficiency in plants” (Communications Biology, 2023)
